The supplement of paper PMC11451515

Tested on: NOMO1
Assay: cell viability relative to DMSO control; higher = less cytotoxic
Details: 48 h
In short: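 Three leukemia lines were tested: NOMO1 and SEM at 500 cells/well and P12-Ichikawa at 1000 cells/well. Each was adapted for at least four passages in each medium and seeded in 5 μl in 1536-well plates, and library compounds in DMSO were pin-dosed from 47 μM to 0.79 nM in 11 threefold steps. After 48 h at 37°C, CellTiter-Glo One luminescence was read. Viability is a percentage relative to DMSO wells on each plate, with cell-free wells as background.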

[1] = HPLM + 10% dialyzed FBS, 0.000781 µM
[2] = HPLM + 10% dialyzed FBS, 0.00234 µM
[3] = HPLM + 10% dialyzed FBS, 0.00702 µM
[4] = HPLM + 10% dialyzed FBS, 0.0211 µM
[5] = HPLM + 10% dialyzed FBS, 0.0632 µM
[6] = HPLM + 10% dialyzed FBS, 0.19 µM
[7] = HPLM + 10% dialyzed FBS, 0.569 µM
[8] = HPLM + 10% dialyzed FBS, 1.71 µM
[9] = HPLM + 10% dialyzed FBS, 5.12 µM
[10] = HPLM + 10% dialyzed FBS, 15.4 µM
[11] = HPLM + 10% dialyzed FBS, 46.1 µM
[12] = RPMI 5 mM glucose + 10% FBS, 0.000781 µM
[13] = RPMI 5 mM glucose + 10% FBS, 0.00234 µM
[14] = RPMI 5 mM glucose + 10% FBS, 0.00702 µM
[15] = RPMI 5 mM glucose + 10% FBS, 0.0211 µM
[16] = RPMI 5 mM glucose + 10% FBS, 0.0632 µM
[17] = RPMI 5 mM glucose + 10% FBS, 0.19 µM
[18] = RPMI 5 mM glucose + 10% FBS, 0.569 µM
[19] = RPMI 5 mM glucose + 10% FBS, 1.71 µM
[20] = RPMI 5 mM glucose + 10% FBS, 5.12 µM
[21] = RPMI 5 mM glucose + 10% FBS, 15.4 µM
[22] = RPMI 5 mM glucose + 10% FBS, 46.1 µM
[23] = RPMI 5 mM glucose + 10% dialyzed FBS, 0.000781 µM
[24] = RPMI 5 mM glucose + 10% dialyzed FBS, 0.00234 µM
[25] = RPMI 5 mM glucose + 10% dialyzed FBS, 0.00702 µM
[26] = RPMI 5 mM glucose + 10% dialyzed FBS, 0.0211 µM
[27] = RPMI 5 mM glucose + 10% dialyzed FBS, 0.0632 µM
[28] = RPMI 5 mM glucose + 10% dialyzed FBS, 0.19 µM
[29] = RPMI 5 mM glucose + 10% dialyzed FBS, 0.569 µM
[30] = RPMI 5 mM glucose + 10% dialyzed FBS, 1.71 µM
[31] = RPMI 5 mM glucose + 10% dialyzed FBS, 5.12 µM
[32] = RPMI 5 mM glucose + 10% dialyzed FBS, 15.4 µM
[33] = RPMI 5 mM glucose + 10% dialyzed FBS, 46.1 µM

SMILES	cell viability [1] [%]	cell viability [2] [%]	cell viability [3] [%]	cell viability [4] [%]	cell viability [5] [%]	cell viability [6] [%]	cell viability [7] [%]	cell viability [8] [%]	cell viability [9] [%]	cell viability [10] [%]	cell viability [11] [%]	cell viability [12] [%]	cell viability [13] [%]	cell viability [14] [%]	cell viability [15] [%]	cell viability [16] [%]	cell viability [17] [%]	cell viability [18] [%]	cell viability [19] [%]	cell viability [20] [%]	cell viability [21] [%]	cell viability [22] [%]	cell viability [23] [%]	cell viability [24] [%]	cell viability [25] [%]	cell viability [26] [%]	cell viability [27] [%]	cell viability [28] [%]	cell viability [29] [%]	cell viability [30] [%]	cell viability [31] [%]	cell viability [32] [%]	cell viability [33] [%]
Oc1ccc([C@@H]2Oc3ccc(O)cc3[C@@H]3CCC[C@@H]32)cc1	92.1	93.1	95.1	102	98	89.3	90.5	94.2	79.3	62	31.8	93.3	105	97.5	88.1	87.3	100	99.9	89.7	81.8	77	28.8	93.8	92.1	97.7	90.7	90.8	94.1	90.7	87.4	83.2	63.7	25.6
Nc1nc(N)c(N=O)c(OCC2CCCCC2)n1	89.8	104	90.2	116	94.5	99	99.5	62.5	46.9	38.9	23.4	90.3	90.2	93	93.5	87.9	94	91.8	76.9	61.6	48	28.2	76.6	91.8	78.8	87.9	97.9	96.9	91.2	76.8	66.8	60.4	33.8
COc1cc(OC)c(C(=O)CCCN2CCCC2)c(OC)c1	–	–	–	–	–	–	–	–	–	–	–	132	125	122	127	127	116	120	108	119	98.4	106	–	–	–	–	–	–	–	–	–	–	–
COc1ccc2[nH]cc(CCNC(C)=O)c2c1	115	115	125	131	114	129	118	119	131	112	114	–	–	–	–	–	–	–	–	–	–	–	–	–	–	–	–	–	–	–	–	–	–
CC(C)(Sc1ccc(CCN(CCCCC2CCCCC2)C(=O)NC2CCCCC2)cc1)C(=O)O	107	120	101	111	109	109	118	108	101	114	101	102	120	113	110	120	120	107	118	98	95.6	118	106	102	102	114	113	104	112	108	93.7	114	98.8
Cc1c(C(=O)c2cccc3ccccc23)c2cccc3c2n1[C@H](CN1CCOCC1)CO3	104	100	94.2	101	99.9	91	89.5	86.9	97.9	86.1	5.74	91.4	83.8	87.4	87.8	96.7	94.4	86.4	91	88.7	81.4	4.88	84.2	90	86.3	86.9	95.8	85.5	85.4	88.1	87.5	77.7	5.16
CCC(C1CCC(C)C(O1)C(C)C(O)C(C)C(=O)C(CC)C2OC\3(O[C@]4(CC[C@@](C)(O4)C5CC[C@@](O)(CC)C(C)O5)C(O)\C=C3)C(C)CC2C)C([O-])=O (stereo partly drawn)	111	121	101	91.2	119	109	117	68.6	38	27.3	26.4	90.5	34.1	99.9	90.6	114	110	97.1	67.6	19.7	16.6	15.3	96.9	78.6	132	153	119	75.1	102	36.2	15.2	13.5	11
N#Cc1ccnc(N2C(=O)CC[C@H]2C(=O)N(c2cncc(F)c2)[C@H](C(=O)NC2CC(F)(F)C2)c2ccccc2Cl)c1	90.6	92.3	96.6	114	101	115	67.7	49	19.6	26.2	30.7	93.2	95.6	116	95.1	90.1	92	94.6	79.2	16.8	16.5	14.5	97.2	97.1	96.4	101	97.6	90.7	94.8	88.2	42.2	32.1	18.8
N=C(N)Nc1ccc(C(=O)Oc2ccc3cc(C(=N)N)ccc3c2)cc1	96.3	103	100	100	101	95.6	93.5	100	81.1	89.6	48	93.7	84.8	83.5	86.6	90.8	86	90.7	89.8	90.5	73.3	50.6	86	85.3	78.6	90.4	95.3	92.4	79.4	83.7	88.7	70.5	45.3
